Reference: US4299822A, “N-Trifluoroacetyladriamycin-14-O-hemiglutarate and -hemiadipate and therapeutic compositions containing same” (Sidney Farber Cancer Institute, Inc., priority 1980, dated 1981)

Key:
[1] = cited from earlier work
murine P388 leukemia = test: in vivo antitumor activity against murine P388 leukemia, ip qd 1-4; parameters: species or system mouse (BDF1 male mice); details: 10% Emulphor EL-620, 10% ethanol, 80% saline
Experimental: (§1) The toxicity and therapeutic effectiveness of the new compounds and active agents of the present invention are shown by in vitro assays and by in vivo evaluations in mice. The in vitro assays measure the growth inhibiting activity of the materials against the CCRF-CEM cell line in culture. The cell line was derived from the peripheral blood of a child with lymphoblastic leukemia as described by Foley et al., Cancer, Volume 18, page 522 et seq. (1965), and the assays were carried out by the procedure of Foley and Lazarus, Biochem. Pharmacol., Volume 16, pages 659 et seq. (1967), the results being reported in terms of the dose in micromoles per liter required to inhibit growth of the cultures by 50% relative to control cultures to which no drug had been added (ID50). The in vivo evaluations were made by preparing a 0.2 to 0.7% by weight solution of the active agent in a formulation consisting of 10% by volume of each polyethoxylated castor oil and ethanol in saline and injecting the dosage intraperitoneally. The evaluations were made of the antitumor activity against the murine P388 and murine L1210 leukemias in BDF1 male mice according to standard National Cancer Institute protocols as set forth by Geran et al., Cancer Chemotherap. Rep., Part 3, Volume 3, pages 1 et seq. (1972) , except that a qd 1-4 schedule was used in place of qd 1-9 in order to conserve materials.
(§2) Optimal dosage was determined by testing doses which were at several multiples of 10 milligrams/kilogram of body weight. Some effectiveness can be observed at dosages ranging from 30 to 70 milligrams/kilogram of body weight, depending upon the particular compound employed.
The following table summarizes the in vivo antitumor activity of the same compounds as those in Table I, evaluated against murine P388 leukemia as described above. All compounds were administered intraperitoneally, adriamycin in clinical formulation (1 part adriamycin plus 5 parts lactose, in 0.9% saline), the other compounds in 10% Emulphor EL-620, 10% ethanol, 80% isotonic saline.

[2] = pH 7.4
[3] = cited from earlier work; remark: listed apart in the source
CCRF-CEM cells = test: growth inhibition of CCRF-CEM cell line in culture; format: cell-based; details: Homo sapiens; CCRF-CEM cells, in vitro; read-out: ID50 (dose required to inhibit growth of the cultures by 50% relative to control)
Source text: The in vitro assays measure the growth inhibiting activity of the materials against the CCRF-CEM cell line in culture. […] The in vivo evaluations were made by preparing a 0.2 to 0.7% by weight solution of the active agent in a formulation consisting of 10% by volume of each polyethoxylated castor oil and ethanol in saline and injecting the dosage intraperitoneally. The evaluations were made of the antitumor activity against the murine P388 and murine L1210 leukemias in BDF1 male mice according to standard National Cancer Institute protocols as set forth by Geran et al., Cancer Chemotherap. Rep., Part 3, Volume 3, pages 1 et seq.

murine L1210 leukemia = test: in vivo antitumor activity against L1210 leukemia, ip days 1-4; parameters: species or system mouse (BDF1 male mice); details: 10% Emulphor EL-620, 10% ethanol, 80% isotonic saline
Experimental: as §1, §2
All compounds were administered intraperitoneally; in tests (1) and (2), the compounds were in 10% Emulphor EL-620, 10% ethanol, and 80% isotonic saline. In test (3) the compound was in aqueous buffer containing monobasic potassium phosphate and sodium hydroxide (0.05 M), pH 7.40: […]

[4] = animals and human clinical tests

## CCCCC(=O)OCC(=O)C1(O)Cc2c(O)c3c(c(O)c2C(OC2CC(NC(=O)C(F)(F)F)C(O)C(C)O2)C1)C(=O)c1c(OC)cccc1C3=O (stereo not shown) [N-Trifluoroacetyladriamycin-14-valerate]
[1]; [4]
  cardiotoxicity relative to parent drug: significantly less cardiotoxic than the parent drug
  toxicity in general relative to parent drug: less toxic in general
[1]; human, in vivo
  therapeutic effect relative to adriamycin and daunomycin: therapeutically superior to adriamycin and to daunomycin
Murine P388 leukemia; each dose 20.0 mg/kg ip
  % ILS (percent increase in life span relative to untreated controls): 281%
  No. alive on d 30: 5/7
  No. alive on d 60: 3/7
  Survival, Median day of death (range): 42.0 (21-42) day
Murine P388 leukemia; each dose 30.0 mg/kg ip
  No. alive on d 30: 4/7
  No. alive on d 60: 4/7
  Survival, day of death (range only, no median): 21 to 26 days
Murine P388 leukemia; each dose 40.0 mg/kg ip
  No. alive on d 30: 6/7
  No. alive on d 60: 6/7
  Survival, day of death (range only, no median): 30,71 day
Murine P388 leukemia; each dose 50.0 mg/kg ip
  % ILS (percent increase in life span relative to untreated controls): 763%
  No. alive on d 30: 5/7
  No. alive on d 60: 5/7
  Survival, Median day of death (range): 95.0 (24-95) day
Murine P388 leukemia; each dose 60.0 mg/kg ip
  % ILS (percent increase in life span relative to untreated controls): 718%
  No. alive on d 30: 5/7
  No. alive on d 60: 5/7
  Survival, Median day of death (range): 90.0 (9-90) day
[2]
  solubility in water (in words): a few micrograms
[3]
  water solubility: essentially water-insoluble
CCRF-CEM cells
  IC50: 240 nM
Murine L1210 leukemia; 50.0 mg/kg/d × 4 ip
  % ILS (percent median increase in life span relative to untreated controls, calculated as of day 50): > 456%
  No. alive on d 50: 5/7
Murine L1210 leukemia; 60.0 mg/kg/d × 4 ip
  % ILS (percent median increase in life span relative to untreated controls, calculated as of day 50): > 456%
  No. alive on d 50: 6/7
